Measured values published in publication PMC8564487, “MHC-Optimized Peptide Scaffold for Improved Antigen Presentation and Anti-Tumor Response” (Frontiers in Immunology, 2021).

Tests used:
Assay type in all cases: in vivo, C57BL/6 mice
splenocytes = test: IFN-γ EliSpot cross-reactivity between wt and htcPep after immunization; details: mice immunized with NAL peptide, splenocytes re-stimulated with the labelled peptide
Method: C57BL/6 mice were immunized with the different htcPep. In particular, each group of animals (6 for each group) were injected by sub-cutaneous (s.c.) route with 100 µg of WT, INC (mix of selected htcPep), NAL or MIX peptides (peptide library) respectively, emulsified with 50 μg of Polyinosinic:polycytidylic acid [poly(I:C); InvivoGen] adjuvant formulated in PBS (200ul total volume). Each group received weekly the peptide vaccine in combination with metronomic chemotherapy (MCT) and ICI. One group was treated only with MCT and ICI (MCT + ICI group). Control mice were treated with endotoxin-free phosphate-buffered saline (PBS). Splenocytes were re-stimulated ex-vivo O/N with the different peptides in an IFN-γ EliSpot assay.
ELISPOT was performed according to BD Biosciences manufacturer instructions (BD ELISPOT Mouse IFN-γ ELISPOT Set cod. 551083). 5x10^5 splenocytes or 2 x10^5 tumor infiltrated lymphocytes (TIL) were counted and plated in each well. […]
Both splenocytes and TILs were stimulated with 10ug/ml of single or peptide pool used for the immunization and incubated for 24-26h. […] The plates were read with an AID EliSpot Reader Systems (AID GmbH, Strassberg, Germany). The results were calculated as spot forming counts as a mean of a duplicate count from the specific antigen stimulation minus the negative control.

B16F10 tumors [1] = test: Tumor necrosis rate (H&E) in B16F10 tumors; details: H&E staining
Method: Finally, tumor necrosis rates were evaluated for each tumor lesion. The slides were stained with hematoxylin and eosin and then subjected to reading and determination of areas of necrosis. For percentage of necrosis through the tumor mass, was used the following formula: …
%necrosis area: (necrosis area/total tumoral mass area)∗100

B16F10 tumors [2] = test: IHC of tumor-infiltrating lymphocytes in B16F10 tumors; details: B16F10 tumors at sacrifice, Trp2 groups, Central Tumor
Description: Formalin-Fixed Paraffin-Embedded (FFPE) sections were stained with CD3+, FoxP3 and Granzime B antibodies manually. Visualization of the antibody–antigen reaction was visualized by anti-alkaline phosphatase methods using Vulcan fast red (Biocare Medical FR805S) as the chromogenic substrate. Finally, sections were weakly counterstained with hematoxylin and mounted.
Lymphocyte densities (cells/mm2) were quantified in the tumor (CT) and invasive margin (IM) by digital pathology. The slides were scanned with Aperio AT2 (Leica) and the areas (CT, IM) were selected by an experienced pathologist (MDB). Finally, the acquired images were quantified using QuPath 0.2.3.
To evaluate the balance between cytotoxic and immune suppressive activity of B16 tumor model a formula considering the numerical difference between the GrzB+ cells (cytotoxic cells) and the FOXP3+ cells (immunosuppressive cells), on total CD3+ cells, was applied. The formula is schematized as:
Ratio=(# of GRZB−# of FOXP3)/# of CD3.

Y4W: heteroclitic E7 peptide with Tryptophan substitution at position 4 (RAHWNIVTF; UniProt P03129 49-57, looked up, variant Y52W)
T cell cross-reactivity of NAL-immunized animals with challenging htcPep (splenocytes; HPV-E7 series): strongest T cells cross-reactivity

D4W: heteroclitic Trp2 peptide with Tryptophan substitution at position 4 (SVYWFFVWL; UniProt P29812 180-188, looked up, variant D183W)
T cell cross-reactivity of NAL-immunized animals with challenging htcPep (splenocytes; Trp2 series): strongest T cells cross-reactivity

Trp2 wt: wild type Trp2 H-2Db epitope expressed by B16F10 melanoma cells (SVYDFFVWL; Trp2 H-2Db epitope; UniProt P29812 180-188, looked up, fragment)
% of necrosis (necrosis area/total tumoral mass area) (B16F10 tumors [1]): 10% | Average number of FOXP3+ T cells, CT area (B16F10 tumors [2]): 2.8
